Laboratory results reported in US8299072B2, “Pyrazolylmethylamine compounds as calcium channel modulators and preparation method thereof” (Korea Institute of Science and Technology, priority 2008, dated 2012).

Biological target: T1, α1G T-type calcium channel (Homo sapiens, UniProt O43497)
T1 construct: expressed in transfected cells; host or cells: HEK293 cells stably expressing α1G, selected with G-418; The cell line KCTC 10519BP is named only for the FDSS6000 screen
Experiment: T-type calcium channel activity by electrophysiological whole-cell patch-clamp technique
Format: cell-based
Conditions: HEK293 cells stably expressing α1G T-type calcium channels, inhibition of inward peak currents, test pulse −30 mV, holding −100 mV
Protocol: The novel compounds of the present invention represented by the above formula 1 were tested for their antagonistic activities with regard to T-type calcium channel as follows.
2) Methods for the Measurements of T-Type Calcium Channel Activity Using an Electrophysiological Whole-Cell Patch-Clamp Technique
HEK293 cells stably expressing T-type calcium channels were cultured in DMEM (Dulbecco's modified Eagle's medium) containing 10% (v/v) fetal bovine serum and 1% penicillin/streptomycin (v/v) in humidified 5% CO2 at 36.5° C. Cells expressing α1G T-type calcium channels were selected using G-418 (0.5 mg/mL) in the culture medium. The culture medium was replaced with a fresh one every 3-4 days, and cells were subcultured every week.
Cells were seeded on the coverglass coated with poly-L-lysine (0.5 mg/mL) for the measurements of T-type calcium channel activity 2-7 days prior to the recordings. Whole-cell recordings of T-type calcium channel currents were performed using an EPC-9 patch clamp amplifier (HEKA, Germany). Whole-cell currents were recorded using micropipettes with resistance of 3-4MΩ with the pipette (intracellular) solution containing (in mM): 130 KCl, 11 EGTA, 5 Mg-ATP, and 10 HEPES, pH to 7.4 and with the bath (extracellular) solution containing (in mM): 140 NaCl, 2 CaCl2, and 10 HEPES, pH to 7.4. The inward currents of T-type calcium channels were evoked by the test pulses of −30 mV for 50 ms at a holding potential of −100 mV every 10 seconds.
Each compound was dissolved in dimethylsulfoxide (DMSO) as 10 mM stock solutions and diluted in the bath solution to 10 μM (containing 0.1% DMSO). […] More specifically, each compound was perfused to the bath for about 30-60 seconds, and the inhibition of the inward peak currents by a test compound was calculated as a percent inhibition from which IC50 values were determined.

T1 sequence (O43497 whole entry): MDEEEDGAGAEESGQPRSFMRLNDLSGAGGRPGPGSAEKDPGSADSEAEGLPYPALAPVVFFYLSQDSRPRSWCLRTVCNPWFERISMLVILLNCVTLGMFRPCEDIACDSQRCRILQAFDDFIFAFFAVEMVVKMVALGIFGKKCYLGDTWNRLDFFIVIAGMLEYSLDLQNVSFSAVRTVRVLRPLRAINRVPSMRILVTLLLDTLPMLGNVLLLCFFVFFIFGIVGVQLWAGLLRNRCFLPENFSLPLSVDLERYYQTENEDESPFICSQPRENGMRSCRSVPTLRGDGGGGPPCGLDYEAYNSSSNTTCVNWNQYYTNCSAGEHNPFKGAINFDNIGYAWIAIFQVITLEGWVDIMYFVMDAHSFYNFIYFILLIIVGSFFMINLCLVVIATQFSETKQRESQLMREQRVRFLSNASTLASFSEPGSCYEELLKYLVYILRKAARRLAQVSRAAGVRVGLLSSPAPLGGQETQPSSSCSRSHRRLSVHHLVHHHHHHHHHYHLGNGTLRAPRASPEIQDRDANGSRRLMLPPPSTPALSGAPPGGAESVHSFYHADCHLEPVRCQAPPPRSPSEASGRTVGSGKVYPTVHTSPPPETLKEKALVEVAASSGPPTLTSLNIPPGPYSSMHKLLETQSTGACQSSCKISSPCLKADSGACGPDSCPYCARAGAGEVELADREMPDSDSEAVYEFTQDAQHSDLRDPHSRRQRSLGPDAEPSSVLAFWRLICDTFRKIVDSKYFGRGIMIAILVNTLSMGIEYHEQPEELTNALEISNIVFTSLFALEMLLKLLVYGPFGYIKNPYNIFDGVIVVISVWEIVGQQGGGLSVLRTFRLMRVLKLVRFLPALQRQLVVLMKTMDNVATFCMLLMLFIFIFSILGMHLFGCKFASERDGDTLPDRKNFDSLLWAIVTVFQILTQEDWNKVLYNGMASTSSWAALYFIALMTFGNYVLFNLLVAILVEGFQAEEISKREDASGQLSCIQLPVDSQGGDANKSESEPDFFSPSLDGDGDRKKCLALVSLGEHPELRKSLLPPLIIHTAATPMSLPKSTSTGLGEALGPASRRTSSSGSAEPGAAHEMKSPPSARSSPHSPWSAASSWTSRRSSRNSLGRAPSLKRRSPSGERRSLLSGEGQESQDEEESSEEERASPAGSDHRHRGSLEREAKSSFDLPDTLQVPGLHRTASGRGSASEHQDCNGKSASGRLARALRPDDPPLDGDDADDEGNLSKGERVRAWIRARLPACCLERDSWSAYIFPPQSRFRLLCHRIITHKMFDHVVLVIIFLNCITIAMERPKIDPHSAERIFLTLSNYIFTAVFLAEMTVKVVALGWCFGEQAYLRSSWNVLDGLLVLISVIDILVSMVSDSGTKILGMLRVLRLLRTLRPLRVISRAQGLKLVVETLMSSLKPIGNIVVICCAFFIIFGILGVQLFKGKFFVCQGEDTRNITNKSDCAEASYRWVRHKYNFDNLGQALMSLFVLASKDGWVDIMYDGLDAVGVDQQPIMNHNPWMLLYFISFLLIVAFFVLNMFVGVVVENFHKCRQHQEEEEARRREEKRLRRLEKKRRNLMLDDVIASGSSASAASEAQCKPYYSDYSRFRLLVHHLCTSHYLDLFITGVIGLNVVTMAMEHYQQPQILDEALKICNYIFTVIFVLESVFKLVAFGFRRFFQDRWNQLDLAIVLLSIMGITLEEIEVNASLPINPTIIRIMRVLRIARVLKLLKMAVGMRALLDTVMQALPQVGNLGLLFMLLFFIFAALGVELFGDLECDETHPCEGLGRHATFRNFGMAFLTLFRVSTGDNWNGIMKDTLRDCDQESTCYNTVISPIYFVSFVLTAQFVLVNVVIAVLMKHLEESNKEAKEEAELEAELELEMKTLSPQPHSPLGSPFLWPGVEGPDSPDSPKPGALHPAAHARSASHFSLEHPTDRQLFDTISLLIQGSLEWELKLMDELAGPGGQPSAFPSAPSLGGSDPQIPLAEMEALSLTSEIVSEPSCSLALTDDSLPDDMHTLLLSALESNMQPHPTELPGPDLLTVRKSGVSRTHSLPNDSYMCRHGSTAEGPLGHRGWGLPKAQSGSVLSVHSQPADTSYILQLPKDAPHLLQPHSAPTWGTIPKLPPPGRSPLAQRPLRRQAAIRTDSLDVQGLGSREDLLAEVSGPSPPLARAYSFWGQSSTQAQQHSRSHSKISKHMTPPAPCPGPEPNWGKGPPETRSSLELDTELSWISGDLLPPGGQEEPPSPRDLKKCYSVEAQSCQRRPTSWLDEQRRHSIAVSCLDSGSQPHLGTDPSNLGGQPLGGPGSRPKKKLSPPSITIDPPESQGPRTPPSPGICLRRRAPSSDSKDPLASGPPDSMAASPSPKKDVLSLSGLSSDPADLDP

Row | Compound | IC50
1 | CC(C)Cc1cc(CNCC(=O)N2CCN(Cc3ccc(Cl)c(Cl)c3)CC2)nn1-c1ccccc1 [Compound No. 75, 3-{[4-(3,4-dichlorobenzyl)piperazin-1-yl]carbonylmethylamino}methyl-5-isobutyl-1-phenyl-1H-pyrazole] | 300 ± 10 nM
2 | CC(C)Cc1cc(CNC(=O)CN2CCN(c3ccccn3)CC2)nn1-c1ccccc1 [Compound No. 36, 3-{[4-(2-pyridyl)piperazin-1-yl]methylcarboxamido}methyl-5-isobutyl-1-phenyl-1H-pyrazole] | 9420 ± 700 nM
3 | CC(C)Cc1cc(CNC(=O)CN2CCN(c3ccccc3)CC2)nn1-c1ccccc1 [Compound No. 9, 3-[(4-phenylpiperazin-1-yl)methylcarboxamido]methyl-5-isobutyl-1-phenyl-1H-pyrazole] | 3540 ± 90 nM
4 | CCCc1cc(CNC(=O)CN2CCN(Cc3ccc(C(F)(F)F)cc3)CC2)nn1-c1ccccc1 [Compound No. 32, 3-{[4-(4-trifluoromethyl)benzylpiperazin-1-yl]methylcarboxamido}methyl-5-propyl-1-phenyl-1H-pyrazole] | 1810 ± 90 nM
5 | CCCc1cc(CNC(=O)CN2CCN(c3ccccc3)CC2)nn1-c1ccccc1 [Compound No. 27, 3-[(4-phenylpiperazin-1-yl)methylcarboxamido}methyl-5-propyl-1-phenyl-1H-pyrazole] | 5100 ± 110 nM
6 | Cc1cc(CNC(=O)CN2CCN(Cc3ccc(Cl)c(Cl)c3)CC2)nn1-c1ccccc1 [Compound No. 6, 3-{[4-(3,4-dichlorobenzyl)piperazin-1-yl]methylcarboxamido}methyl-5-methyl-1-phenyl-1H-pyrazole] | 1420 ± 160 nM
7 | Cc1ccc(N2CCN(C(=O)CNCc3cc(CC(C)C)n(-c4ccccc4)n3)CC2)c(C)c1 [Compound No. 69, 3-{[4-(2,4-dimethylphenyl)piperazin-1-yl]carbonylmethylamino}methyl-5-isobutyl-1-phenyl-1H-pyrazole] | 400 ± 40 nM
8 | Cc1cc(CNC(=O)CN2CCN(Cc3cccc(C(F)(F)F)c3)CC2)nn1-c1ccccc1 [Compound No. 5, 3-{[4-(3-trifluoromethyl)benzylpiperazin-1-yl]methylcarboxamido}methyl-5-methyl-1-phenyl-1H-pyrazole] | 1420 ± 160 nM
9 | Cc1cccc(N2CCN(C(=O)CNCc3cc(CC(C)C)n(-c4ccccc4)n3)CC2)c1C [Compound No. 76, 3-{[4-(2,3-dimethylphenyl)piperazin-1-yl]carbonylmethylamino}methyl-5-isobutyl-1-phenyl-1H-pyrazole] | 360 ± 30 nM
10 | O=C(CN1CCN(c2ccccc2)CC1)NCc1cc(-c2ccco2)n(-c2ccccc2)n1 [Compound No. 11, 3-[(4-phenylpiperazin-1-yl)methylcarboxamido]methyl-5-furyl-1-phenyl-1H-pyrazole] | 2570 ± 170 nM
11 | CC(C)Cc1cc(CNC(=O)CN2CCN(Cc3ccc(C(F)(F)F)cc3)CC2)nn1-c1ccccc1 [Compound No. 16, 3-{[4-(4-trifluoromethylbenzyl)piperazin-1-yl]methylcarboxamido}methyl-5-isobutyl-1-phenyl-1H-pyrazole] | 1770 ± 100 nM
12 | CCCc1cc(CNC(=O)CN2CCN(Cc3ccc4c(c3)OCO4)CC2)nn1-c1ccccc1 [Compound No. 33, 3-[(4-piperonylpiperazin-1-yl)methylcarboxamido]methyl-5-propyl-1-phenyl-1H-pyrazole] | 9560 ± 1420 nM
13 | Cc1cc(CNC(=O)CN2CCN(C(c3ccccc3)c3ccccc3)CC2)nn1-c1ccccc1 [Compound No. 3, 3-[(4-benzhydrylpiperazin-1-yl)methylcarboxamido]methyl-5-methyl-1-phenyl-1H-pyrazole] | 1830 ± 120 nM
14 | Cc1cccc(N2CCN(C(=O)CNCc3cc(C)n(-c4ccccc4)n3)CC2)c1C [Compound No. 64, 3-{[4-(2,3-dimethylphenyl)piperazin-1-yl]carbonylmethylamino}methyl-5-methyl-1-phenyl-1H-pyrazole] | 2060 ± 1200 nM
15 | Cc1cc(CNCC(=O)N2CCN(C(c3ccccc3)c3ccccc3)CC2)nn1-c1ccccc1 [Compound No. 65, 3-[(4-benzhydrylpiperazin-1-yl)carbonylmethylamino]methyl-5-methyl-1-phenyl-1H-pyrazole] | 3500 ± 350 nM
16 | Cc1cccc(N2CCN(CC(=O)NCc3cc(C)n(-c4ccccc4)n3)CC2)c1C [Compound No. 1, 3-{[4-(2,3-dimethyl)phenylpiperazin-1-yl]methylcarboxamido}methyl-5-methyl-1-phenyl-1H-pyrazole] | 20 ± 10 nM
